Data from patent US20020193320A1, “C-2 modified erythromycin derivatives” (priority 1999, published 2002).

Assays:
Assay in all cases: In vitro antibacterial activity, agar dilution MIC
Type in all cases: cell-based
[1] = tested on: Staphylococcus aureus 1775; parameters: unit not given here; details: code GG, BHI agar, 35-37° C., 20 to 24 hours
Description: (§1) Representative compounds of the present invention were assayed in vitro for antibacterial activity as follows: Twelve petri dishes containing successive aqueous dilutions of the test compound mixed with 10 mL of sterilized Brain Heart Infusion (BHI) agar (Difco 0418-01-5) were prepared. Each plate was inoculated with 1:100 (or 1:10 for slow-growing strains, such as Micrococcus and Streptococcus) dilutions of up to 32 different microorganisms, using a Steers replicator block. The inoculated plates were incubated at 35-37° C. for 20 to 24 hours. In addition, a control plate, using BHI agar containing no test compound, was prepared and incubated at the beginning and end of each test.
(§2) An additional plate containing a compound having known susceptibility patterns for the organisms being tested and belonging to the same antibiotic class as the test compound was also prepared and incubated as a further control, as well as to provide test-to-test comparability.
(§3) After incubation, each plate was visually inspected. The minimum inhibitory concentration (MIC) was defined as the lowest concentration of drug yielding no growth, a slight haze, or sparsely isolated colonies on the inoculum spot as compared to the growth control.

[2] = tested on: Streptococcus pyogenes 930; parameters: unit not given here; details: code MM, BHI agar, 35-37° C., 20 to 24 hours
Description: as §1, §2, §3

[3] = tested on: Escherichia coli SS; parameters: unit not given here; details: code RR, BHI agar, 35-37° C., 20 to 24 hours
Description: as §1, §2, §3

[4] = tested on: Enterococcus faecium ATCC X043; parameters: unit not given here; details: code II, BHI agar, 35-37° C., 20 to 24 hours
Description: as §1, §2, §3

[5] = tested on: Escherichia coli JUHL; parameters: unit not given here; details: code QQ, BHI agar, 35-37° C., 20 to 24 hours
Description: as §1, §2, §3

[6] = tested on: Mycobacterium smegmatis ATCC 114; parameters: unit not given here; details: code UU, BHI agar, 35-37° C., 20 to 24 hours
Description: as §1, §2, §3

[7] = tested on: Nocardia Asteroides ATCC 99700; parameters: unit not given here; details: code VV, BHI agar, 35-37° C., 20 to 24 hours
Description: as §1, §2, §3

[8] = tested on: Staphylococcus aureus A-5278; parameters: unit not given here; details: code CC, BHI agar, 35-37° C., 20 to 24 hours
Description: as §1, §2, §3

[9] = tested on: Candida albicans CCH 442; parameters: unit not given here; details: code TT, BHI agar, 35-37° C., 20 to 24 hours
Description: as §1, §2, §3

[10] = tested on: Escherichia coli DC-2; parameters: unit not given here; details: code SS, BHI agar, 35-37° C., 20 to 24 hours
Description: as §1, §2, §3

[11] = tested on: Micrococcus luteus ATCC 9341; parameters: unit not given here; details: code OO, BHI agar, 35-37° C., 20 to 24 hours
Description: as §1, §2, §3

[12] = tested on: Staphylococcus aureus ATCC 6538P; parameters: unit not given here; details: code AA, BHI agar, 35-37° C., 20 to 24 hours
Description: as §1, §2, §3

[13] = tested on: Staphylococcus epidermidis 3519; parameters: unit not given here; details: code HH, BHI agar, 35-37° C., 20 to 24 hours
Description: as §1, §2, §3

[14] = tested on: Streptococcus bovis A-5169; parameters: unit not given here; details: code JJ, BHI agar, 35-37° C., 20 to 24 hours
Description: as §1, §2, §3

[15] = tested on: Staphylococcus aureus NCTC 10649M; parameters: unit not given here; details: code EE, BHI agar, 35-37° C., 20 to 24 hours
Description: as §1, §2, §3

[16] = tested on: Staphylococcus aureus CMX 642A; parameters: unit not given here; details: code DD, BHI agar, 35-37° C., 20 to 24 hours
Description: as §1, §2, §3

[17] = tested on: Staphylococcus aureus A-5177; parameters: unit not given here; details: code BB, BHI agar, 35-37° C., 20 to 24 hours
Description: as §1, §2, §3

[18] = tested on: Streptococcus pyogenes PIU 2548; parameters: unit not given here; details: code NN, BHI agar, 35-37° C., 20 to 24 hours
Description: as §1, §2, §3

[19] = tested on: Staphylococcus aureus CMX 553; parameters: unit not given here; details: code FF, BHI agar, 35-37° C., 20 to 24 hours
Description: as §1, §2, §3

[20] = tested on: Streptococcus agalactiae CMX 508; parameters: unit not given here; details: code KK, BHI agar, 35-37° C., 20 to 24 hours
Description: as §1, §2, §3

[21] = tested on: Streptococcus pyogenes EES61; details: code LL, BHI agar, 35-37° C., 20 to 24 hours
Description: as §1, §2, §3

[22] = tested on: Streptococcus Pneumonia 5979; details: code ZZ, 35-37° C., 20 to 24 hours
Description: as §1, §2, §3

[23] = tested on: Streptococcus Pneumonia ATCC 6303; details: code XX, 35-37° C., 20 to 24 hours
Description: as §1, §2, §3

[24] = tested on: Haemophilis Influenzae DILL AMP R; details: code WW, 35-37° C., 20 to 24 hours
Description: as §1, §2, §3

[25] = tested on: Streptococcus Pneumonia GYR 1171; details: code YY, 35-37° C., 20 to 24 hours
Description: as §1, §2, §3

[26] = tested on: Micrococcus luteus ATCC 4698; details: code PP, BHI agar, 35-37° C., 20 to 24 hours
Description: as §1, §2, §3

[27] = tested on: Streptococcus Pneumonia 5649; details: code ZZA (code list: ZA), 35-37° C., 20 to 24 hours
Description: as §1, §2, §3

Compound	Antibacterial Activity (MIC) [1]	Antibacterial Activity (MIC) [2]	Antibacterial Activity (MIC) [3]	Antibacterial Activity (MIC) [4]	Antibacterial Activity (MIC) [5]	Antibacterial Activity (MIC) [6]	Antibacterial Activity (MIC) [7]	Antibacterial Activity (MIC) [8]	Antibacterial Activity (MIC) [9]	Antibacterial Activity (MIC) [10]	Antibacterial Activity (MIC) [11]	Antibacterial Activity (MIC) [12]	Antibacterial Activity (MIC) [13]	Antibacterial Activity (MIC) [14]	Antibacterial Activity (MIC) [15]	Antibacterial Activity (MIC) [16]	Antibacterial Activity (MIC) [17]	Antibacterial Activity (MIC) [18]	Antibacterial Activity (MIC) [19]	Antibacterial Activity (MIC) [20]	other results
C=CCC1(C)C(=O)OC(CC)C2(C)OC(=O)NC2C(C)C(=O)C(C)CC(C)(OCC=Cc2cnc3ccccc3c2)C(OC2OC(C)CC(N(C)C)C2O)C(C)C1=O (stereo not drawn) [Example 4, Compound of formula (II): R^a is —CH2CH═CH—(3-quinolinyl), R^b is H, Y and Z together are O, T is —NH—, R is —CH2CH═CH2]	>100	12.5	3.1	0.2	>100	3.1	0.1	>100	>100	>100	0.1	0.78	0.39	0.05	0.78	0.78	0.39	0.78	0.39	0.2	Antibacterial Activity (MIC) [21]: 0.1; Antibacterial Activity (MIC) [22]: 64; Antibacterial Activity (MIC) [23]: 0.25; Antibacterial Activity (MIC) [24]: 16; Antibacterial Activity (MIC) [25]: 0.25; Antibacterial Activity (MIC) [26]: 0.78; Antibacterial Activity (MIC) [27]: 2
CCC1OC(=O)C(C)(CC=Cc2ccccc2)C(=O)C(C)C(OC2OC(C)CC(N(C)C)C2O)C(C)(OC)CC(C)C(=O)C(C)C2NC(=O)OC12C (stereo not drawn) [Example 1, Compound of formula (II): R^a is CH3, R^b is H, Y and Z together are O, T is —NH—, R is —CH2CH═CH-(phenyl)]	100	50	50	25	>100	25	25	100	100	>100	3.1	25	50	12.5	50	25	25	12.5	50	12.5	Antibacterial Activity (MIC) [21]: 12.5; Antibacterial Activity (MIC) [22]: 64; Antibacterial Activity (MIC) [23]: 8; Antibacterial Activity (MIC) [24]: >128; Antibacterial Activity (MIC) [25]: 4; Antibacterial Activity (MIC) [26]: 6.2; Antibacterial Activity (MIC) [27]: 16
Compound of formula (II): R^a is CH3, R^b is H, Y and Z together are O, T is —N(W(R^g)-, W is —(CH2)p-, p is 4, R^g is phenyl, R is —OH [Example 2]	100	25	6.2	0.39	>100	3.1	3.1	100	100	>100	0.39	1.56	3.1	0.2	1.56	3.1	1.56	0.39	1.56	0.2	Antibacterial Activity (MIC) ([21]; unit assumed): 0.1 µg/mL; Antibacterial Activity (MIC) ([22]; unit assumed): 32 µg/mL; Antibacterial Activity (MIC) ([23]; unit assumed): 0.5 µg/mL; Antibacterial Activity (MIC) ([24]; unit assumed): 64 µg/mL; Antibacterial Activity (MIC) ([25]; unit assumed): 0.25 µg/mL; Antibacterial Activity (MIC) ([26]; unit assumed): 0.78 µg/mL; Antibacterial Activity (MIC) ([27]; unit assumed): 1 µg/mL
C#CCOC1(C)CC(C)C(=O)C(C)C2NC(=O)OC2(C)C(CC)OC(=O)C(C)(CC=Cc2ccccc2)C(=O)C(C)C1OC1OC(C)CC(N(C)C)C1O (stereo not drawn) [Example 9, Compound of formula (II): R^a is —CH2C≡CH, R^b is H, Y and Z together are O, T is —NH—, R is —CH2CH≡CH—(phenyl)]	100	50	6.2	3.1	>100	12.5	1.56	>100	>100	>100	1.56	3.1	6.2	0.78	12.5	3.1	3.1	3.1	3.1	1.56	Antibacterial Activity (MIC) [21]: 1.56; Antibacterial Activity (MIC) [22]: 64; Antibacterial Activity (MIC) [23]: 1; Antibacterial Activity (MIC) [24]: >64; Antibacterial Activity (MIC) [25]: 1; Antibacterial Activity (MIC) [26]: 3.1; Antibacterial Activity (MIC) [27]: 8
